Results from patent EP4745137A1 (Gluetacs Therapeutics (Shanghai) Co., Ltd., priority 2023, dated 2025).

How the values were obtained:
WEE1 = molecular target: T1, WEE1 (Homo sapiens, UniProt P30291+Q96SW2); assay: Western-blot assay of substrate protein degradation in hPBMCs, WEE1; format: cell-based; conditions: 24 hours of compound treatment
T1 construct: endogenous in cells; host or cells: hPBMCs (Milecell Biotechnologies)

IKZF1 = molecular target: T2, IKZF1 (Homo sapiens, UniProt Q13422+Q96SW2); assay: Western-blot assay of substrate protein degradation in hPBMCs, IKZF1; format: cell-based; conditions: 24 hours of compound treatment
T2 construct: endogenous in cells; host or cells: hPBMCs (Milecell Biotechnologies)

IKZF2 = molecular target: T3, IKZF2 (Homo sapiens, UniProt Q96SW2+Q9UKS7); assay: Western-blot assay of substrate protein degradation in hPBMCs, IKZF2; format: cell-based; conditions: 24 hours of compound treatment
T3 construct: endogenous in cells; host or cells: hPBMCs (Milecell Biotechnologies)

IKZF3 = molecular target: T4, IKZF3 (Homo sapiens, UniProt Q96SW2+Q9UKT9); assay: Western-blot assay of substrate protein degradation in hPBMCs, IKZF3; format: cell-based; conditions: 24 hours of compound treatment
T4 construct: endogenous in cells; host or cells: hPBMCs (Milecell Biotechnologies)

CK1α = molecular target: T5, CK1α (Homo sapiens, UniProt P48729+Q96SW2); assay: Western-blot assay of substrate protein degradation in hPBMCs, CK1α; format: cell-based; conditions: 24 hours of compound treatment
T5 construct: endogenous in cells; host or cells: hPBMCs (Milecell Biotechnologies)

GSPT1 = molecular target: T6, GSPT1 (Homo sapiens, UniProt P15170+Q96SW2); assay: Western-blot assay of substrate protein degradation in hPBMCs, GSPT1; format: cell-based; conditions: 24 hours of compound treatment
T6 construct: endogenous in cells; host or cells: hPBMCs (Milecell Biotechnologies)

[1] = molecular target: T7, human Cereblon WT GST-tagged protein (Homo sapiens, UniProt Q96SW2); assay: CRBN-binding affinity by HTRF (CEREBLON BINDING kit); conditions: HTRF inhibitory activity, CEREBLON BINDING kit; read-out: HTRF IC50
T7 construct: purchased CISBIO 64BDCRBNPEH

[2] = compounds tested at 50 nM and 500 nM (concentration of the table not stated)
[3] = 50 nM and 500 nM tested (concentration behind the class not stated)

T4 sequence (Q9UKT9 whole entry): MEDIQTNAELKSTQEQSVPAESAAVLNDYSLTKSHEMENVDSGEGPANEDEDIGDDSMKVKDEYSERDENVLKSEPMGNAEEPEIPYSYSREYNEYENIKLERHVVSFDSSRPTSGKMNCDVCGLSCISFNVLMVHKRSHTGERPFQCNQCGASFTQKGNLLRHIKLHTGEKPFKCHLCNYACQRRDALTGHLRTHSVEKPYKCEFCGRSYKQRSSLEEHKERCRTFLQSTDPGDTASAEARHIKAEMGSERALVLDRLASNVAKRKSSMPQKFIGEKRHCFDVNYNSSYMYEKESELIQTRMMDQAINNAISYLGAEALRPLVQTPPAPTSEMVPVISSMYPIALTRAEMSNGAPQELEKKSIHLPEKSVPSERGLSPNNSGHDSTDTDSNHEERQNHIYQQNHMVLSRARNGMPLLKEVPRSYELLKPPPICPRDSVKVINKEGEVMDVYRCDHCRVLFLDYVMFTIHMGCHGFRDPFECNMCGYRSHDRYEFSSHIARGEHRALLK
T4 sequence (Q96SW2 whole entry): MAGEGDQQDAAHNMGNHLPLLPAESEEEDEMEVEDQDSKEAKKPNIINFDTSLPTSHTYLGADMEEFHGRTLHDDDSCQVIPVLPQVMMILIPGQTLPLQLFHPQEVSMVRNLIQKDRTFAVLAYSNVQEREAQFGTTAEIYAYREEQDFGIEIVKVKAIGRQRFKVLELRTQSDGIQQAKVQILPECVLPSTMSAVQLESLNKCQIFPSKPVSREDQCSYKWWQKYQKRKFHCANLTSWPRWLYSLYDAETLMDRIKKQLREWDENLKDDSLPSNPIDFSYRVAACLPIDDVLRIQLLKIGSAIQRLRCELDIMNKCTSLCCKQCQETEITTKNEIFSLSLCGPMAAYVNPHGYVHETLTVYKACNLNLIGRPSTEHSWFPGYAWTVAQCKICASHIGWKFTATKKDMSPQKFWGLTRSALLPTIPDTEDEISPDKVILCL
T4 sequence (Q16531 whole entry partner): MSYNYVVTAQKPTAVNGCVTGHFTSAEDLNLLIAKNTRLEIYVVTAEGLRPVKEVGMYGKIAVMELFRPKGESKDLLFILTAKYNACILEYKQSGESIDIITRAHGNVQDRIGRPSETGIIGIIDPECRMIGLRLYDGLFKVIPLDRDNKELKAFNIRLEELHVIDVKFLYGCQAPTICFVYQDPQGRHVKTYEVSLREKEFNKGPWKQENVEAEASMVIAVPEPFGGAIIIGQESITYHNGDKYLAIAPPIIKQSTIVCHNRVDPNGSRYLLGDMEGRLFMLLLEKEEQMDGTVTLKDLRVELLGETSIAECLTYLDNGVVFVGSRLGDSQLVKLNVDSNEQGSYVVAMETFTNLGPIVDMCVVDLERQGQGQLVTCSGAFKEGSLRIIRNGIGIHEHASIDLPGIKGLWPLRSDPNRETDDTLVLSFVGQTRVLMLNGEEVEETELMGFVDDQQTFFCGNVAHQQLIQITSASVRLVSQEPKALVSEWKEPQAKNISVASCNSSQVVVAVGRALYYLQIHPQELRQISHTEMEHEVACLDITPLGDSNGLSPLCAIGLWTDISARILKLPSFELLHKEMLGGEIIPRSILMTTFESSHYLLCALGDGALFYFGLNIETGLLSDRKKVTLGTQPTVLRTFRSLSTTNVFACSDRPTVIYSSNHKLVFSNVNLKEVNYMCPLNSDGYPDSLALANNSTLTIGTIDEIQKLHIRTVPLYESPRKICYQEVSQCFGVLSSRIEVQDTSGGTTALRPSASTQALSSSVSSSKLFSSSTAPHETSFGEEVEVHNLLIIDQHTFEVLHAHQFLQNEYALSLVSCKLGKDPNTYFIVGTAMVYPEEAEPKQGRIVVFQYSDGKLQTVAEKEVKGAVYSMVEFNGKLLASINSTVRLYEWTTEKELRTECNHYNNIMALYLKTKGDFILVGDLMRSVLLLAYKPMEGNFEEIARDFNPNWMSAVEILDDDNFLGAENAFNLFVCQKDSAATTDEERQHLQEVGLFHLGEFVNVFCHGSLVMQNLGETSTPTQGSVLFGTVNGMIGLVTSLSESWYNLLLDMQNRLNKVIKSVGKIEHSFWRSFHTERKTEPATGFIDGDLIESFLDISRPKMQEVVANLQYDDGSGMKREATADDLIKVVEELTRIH
T7 sequence (Q96SW2 whole entry): as the sequence (Q96SW2 whole entry) above
T5 sequence (P48729 whole entry): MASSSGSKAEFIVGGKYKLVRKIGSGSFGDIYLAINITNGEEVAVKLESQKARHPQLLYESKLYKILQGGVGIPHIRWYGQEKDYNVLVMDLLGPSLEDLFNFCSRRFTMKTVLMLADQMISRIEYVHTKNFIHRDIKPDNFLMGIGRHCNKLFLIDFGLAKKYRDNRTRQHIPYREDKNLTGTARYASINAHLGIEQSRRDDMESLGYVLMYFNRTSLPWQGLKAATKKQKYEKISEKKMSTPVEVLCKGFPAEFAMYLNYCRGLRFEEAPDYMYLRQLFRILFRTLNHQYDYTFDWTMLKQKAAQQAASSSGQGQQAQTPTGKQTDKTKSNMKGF
T5 sequence (Q96SW2 whole entry): as the sequence (Q96SW2 whole entry) above
T5 sequence (Q16531 whole entry partner): as the sequence (Q16531 whole entry partner) above
T2 sequence (Q13422 whole entry): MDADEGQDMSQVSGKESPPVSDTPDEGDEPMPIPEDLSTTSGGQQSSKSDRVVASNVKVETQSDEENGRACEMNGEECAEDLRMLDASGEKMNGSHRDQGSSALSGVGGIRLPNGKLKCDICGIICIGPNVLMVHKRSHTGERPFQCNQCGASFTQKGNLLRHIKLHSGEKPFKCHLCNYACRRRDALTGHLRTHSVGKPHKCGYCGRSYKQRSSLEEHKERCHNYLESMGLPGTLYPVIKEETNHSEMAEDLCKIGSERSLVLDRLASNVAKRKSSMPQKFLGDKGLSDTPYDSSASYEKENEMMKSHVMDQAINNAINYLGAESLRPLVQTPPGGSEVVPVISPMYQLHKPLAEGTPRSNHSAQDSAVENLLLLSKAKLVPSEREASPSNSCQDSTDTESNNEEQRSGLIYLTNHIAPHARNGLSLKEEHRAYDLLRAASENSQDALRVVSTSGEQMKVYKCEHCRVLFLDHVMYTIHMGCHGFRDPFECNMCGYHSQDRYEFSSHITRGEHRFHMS
T2 sequence (Q96SW2 whole entry): as the sequence (Q96SW2 whole entry) above
T2 sequence (Q16531 whole entry partner): as the sequence (Q16531 whole entry partner) above
T1 sequence (P30291 whole entry): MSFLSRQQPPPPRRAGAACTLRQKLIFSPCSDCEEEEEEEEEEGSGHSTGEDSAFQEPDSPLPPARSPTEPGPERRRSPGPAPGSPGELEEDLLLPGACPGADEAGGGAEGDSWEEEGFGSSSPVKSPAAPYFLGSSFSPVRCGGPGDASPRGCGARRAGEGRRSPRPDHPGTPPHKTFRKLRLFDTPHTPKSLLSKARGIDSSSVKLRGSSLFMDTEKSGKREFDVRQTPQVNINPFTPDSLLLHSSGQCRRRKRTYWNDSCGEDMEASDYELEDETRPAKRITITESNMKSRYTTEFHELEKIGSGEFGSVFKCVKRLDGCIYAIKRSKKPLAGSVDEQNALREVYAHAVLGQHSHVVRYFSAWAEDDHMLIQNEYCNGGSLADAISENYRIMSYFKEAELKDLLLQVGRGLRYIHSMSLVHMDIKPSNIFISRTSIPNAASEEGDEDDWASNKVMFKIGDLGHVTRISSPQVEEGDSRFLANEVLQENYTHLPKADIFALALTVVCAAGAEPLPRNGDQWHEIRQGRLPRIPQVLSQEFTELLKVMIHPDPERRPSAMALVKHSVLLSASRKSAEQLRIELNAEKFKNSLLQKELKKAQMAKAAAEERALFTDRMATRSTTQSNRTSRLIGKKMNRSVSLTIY
T1 sequence (Q96SW2 whole entry): as the sequence (Q96SW2 whole entry) above
T1 sequence (Q16531 whole entry partner): as the sequence (Q16531 whole entry partner) above
T6 sequence (P15170 whole entry): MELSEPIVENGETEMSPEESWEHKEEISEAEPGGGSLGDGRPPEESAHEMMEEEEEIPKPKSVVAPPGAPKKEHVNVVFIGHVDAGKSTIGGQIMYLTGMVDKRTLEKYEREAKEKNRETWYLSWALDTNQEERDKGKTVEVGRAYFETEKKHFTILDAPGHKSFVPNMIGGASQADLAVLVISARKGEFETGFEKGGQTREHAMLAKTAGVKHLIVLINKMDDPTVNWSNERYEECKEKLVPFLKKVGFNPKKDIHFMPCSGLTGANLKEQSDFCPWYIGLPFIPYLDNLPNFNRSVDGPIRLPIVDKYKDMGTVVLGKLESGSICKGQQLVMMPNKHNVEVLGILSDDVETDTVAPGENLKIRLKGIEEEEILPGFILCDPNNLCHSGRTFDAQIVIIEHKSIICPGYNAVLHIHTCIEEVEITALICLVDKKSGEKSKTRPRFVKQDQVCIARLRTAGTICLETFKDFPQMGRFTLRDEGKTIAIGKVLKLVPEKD
T6 sequence (Q96SW2 whole entry): as the sequence (Q96SW2 whole entry) above
T6 sequence (Q16531 whole entry partner): as the sequence (Q16531 whole entry partner) above

| IC50 [1] [µM] | Structure (SMILES) | Weel substrate protein remaining % (WEE1; [2]) | IKZF 1 substrate protein remaining % (IKZF1; [2]) | IKZF2 substrate protein remaining % (IKZF2; [2]) | IKZF3 substrate protein remaining % (IKZF3; [2]) | CK1a substrate protein remaining % (CK1α; [2]) | GSPT1 substrate protein remaining % (GSPT1; [2]) | Weel substrate protein remaining % (WEE1; [3]) | IKZF 1 substrate protein remaining % (IKZF1; [3]) | IKZF2 substrate protein remaining % (IKZF2; [3]) | IKZF3 substrate protein remaining % (IKZF3; [3]) | CK1a substrate protein remaining % (CK1α; [3]) | GSPT1 substrate protein remaining % (GSPT1; [3]) |
| --- | --- | --- | --- | --- | --- | --- | --- | --- | --- | --- | --- | --- | --- |
| 0.5 to 1 | O=C1CCC(N2Cc3cc(CN4CCN(c5cnccn5)CC4)ccc3C2=O)C(=O)N1 (stereo not drawn) [GT-04483, 3-(1-oxo-5-((4-(pyrazin-2-yl)piperazin-1-yl)methyl)isoindolin-2-yl)piperidine-2,6-dione] | A (0% ≤ substrate protein remaining % ≤ 80%) | B (80%< substrate protein remaining %≤ 100%) | A (0% ≤ substrate protein remaining % ≤ 80%) | B (80%< substrate protein remaining %≤ 100%) | A (0% ≤ substrate protein remaining % ≤ 80%) | A (0% ≤ substrate protein remaining % ≤ 80%) | – | – | – | – | – | – |
| 0.5 to 1 | O=C1CCC(N2Cc3c(CN4CCN(c5cccc(Cl)c5Cl)CC4)cccc3C2=O)C(=O)N1 (stereo not drawn) [GT-04528, 3-(4-((4-(2,3-dichlorophenyl)piperazin-1-yl)methyl)-1-oxoisoindolin-2-yl)piperidine-2,6-dione] | A (0% ≤ substrate protein remaining % ≤ 80%) | B (80%< substrate protein remaining %≤ 100%) | B (80%< substrate protein remaining %≤ 100%) | B (80%< substrate protein remaining %≤ 100%) | B (80%< substrate protein remaining %≤ 100%) | B (80%< substrate protein remaining %≤ 100%) | – | – | – | – | – | – |
| 0.5 to 1 | O=C1CCC(N2Cc3cc(CN4CCN(c5noc6cc(F)ccc56)CC4)ccc3C2=O)C(=O)N1 (stereo not drawn) [GT-04667, 3-(5-((4-(6-fluorobenzo[d]isoxazol-3-yl)piperazin-1-yl)methyl)-1-oxoisoindolin-2-yl)piperidine-2,6-dione] | A (0% ≤ substrate protein remaining % ≤ 80%) | A (0% ≤ substrate protein remaining % ≤ 80%) | A (0% ≤ substrate protein remaining % ≤ 80%) | A (0% ≤ substrate protein remaining % ≤ 80%) | B (80%< substrate protein remaining %≤ 100%) | A (0% ≤ substrate protein remaining % ≤ 80%) | – | – | – | – | – | – |
| 1 to 1.5 | Cc1nc(C2CCN(Cc3ccc4c(c3)C(=O)N(C3CCC(=O)NC3=O)C4=O)CC2)c2c3c(sc2n1)CCC3 (stereo not drawn) [GT-06651, 2-(2,6-dioxopiperidin-3-yl)-5-((4-(2-methyl-6,7-dihydro-5H-cyclopenta[4,5]thieno[2,3-d]pyrimidin-4-yl)piperidin-1-yl)methyl)isoindoline-1,3-dione] | – | – | – | – | – | – | A (0% ≤ substrate protein remaining % ≤ 80%) | B (80%< substrate protein remaining %≤ 100%) | A (0% ≤ substrate protein remaining % ≤ 80%) | B (80%< substrate protein remaining %≤ 100%) | B (80%< substrate protein remaining %≤ 100%) | B (80%< substrate protein remaining %≤ 100%) |
| 0.5 to 1 | O=C1CCC(N2Cc3cc(CN4CCN(c5ncnc6sccc56)CC4)ccc3C2=O)C(=O)N1 (stereo not drawn) [GT-04678, 3-(1-oxo-5-((4-(thieno[2,3-d]pyrimidin-4-yl)piperazin-1-yl)methyl)isoindolin-2-yl)piperidine-2,6-dione] | A (0% ≤ substrate protein remaining % ≤ 80%) | A (0% ≤ substrate protein remaining % ≤ 80%) | A (0% ≤ substrate protein remaining % ≤ 80%) | A (0% ≤ substrate protein remaining % ≤ 80%) | B (80%< substrate protein remaining %≤ 100%) | A (0% ≤ substrate protein remaining % ≤ 80%) | – | – | – | – | – | – |
| 1 to 1.5 | O=C1CCC(N2Cc3cc(CN4CCN(c5c(Cl)cccc5Cl)CC4)ccc3C2=O)C(=O)N1 (stereo not drawn) [GT-04613, 3-(5-((4-(2,6-dichlorophenyl)piperazin-1-yl)methyl)-1-oxoisoindolin-2-yl)piperidine-2,6-dione] | A (0% ≤ substrate protein remaining % ≤ 80%) | B (80%< substrate protein remaining %≤ 100%) | B (80%< substrate protein remaining %≤ 100%) | B (80%< substrate protein remaining %≤ 100%) | B (80%< substrate protein remaining %≤ 100%) | A (0% ≤ substrate protein remaining % ≤ 80%) | – | – | – | – | – | – |
| 1 to 1.5 | O=C1CCC(N2C(=O)c3ccc(CN4CCN(c5ncnc6sc7c(c56)CCC7)CC4)cc3C2=O)C(=O)N1 (stereo not drawn) [GT-06565, 5-((4-(6,7-dihydro-5H-cyclopenta[4,5]thieno[2,3-d]pyrimidin-4-yl)piperazin-1-yl)methyl)-2-(2,6-dioxopiperidin-3-yl)isoindoline-1,3-dione] | – | – | – | – | – | – | A (0% ≤ substrate protein remaining % ≤ 80%) | A (0% ≤ substrate protein remaining % ≤ 80%) | A (0% ≤ substrate protein remaining % ≤ 80%) | A (0% ≤ substrate protein remaining % ≤ 80%) | A (0% ≤ substrate protein remaining % ≤ 80%) | A (0% ≤ substrate protein remaining % ≤ 80%) |
| 0.5 to 1 | Cc1nc(N2CCN(Cc3ccc4c(c3)C(=O)N(C3CCC(=O)NC3=O)C4=O)CC2)c2c3c(sc2n1)CCC3 (stereo not drawn) [GT-06566, 2-(2,6-dioxopiperidin-3-yl)-5-((4-(2-methyl-6,7-dihydro-5H-cyclopenta[4,5]thieno[2,3-d]pyrimidin-4-yl)piperazin-1-yl)methyl)isoindoline-1,3-dione] | – | – | – | – | – | – | A (0% ≤ substrate protein remaining % ≤ 80%) | A (0% ≤ substrate protein remaining % ≤ 80%) | A (0% ≤ substrate protein remaining % ≤ 80%) | A (0% ≤ substrate protein remaining % ≤ 80%) | A (0% ≤ substrate protein remaining % ≤ 80%) | A (0% ≤ substrate protein remaining % ≤ 80%) |
| < 0.5 | O=C1CCC(N2Cc3cc(CN4CCN(c5nc(N6CCCC6)nc6c5SCC6)CC4)ccc3C2=O)C(=O)N1 (stereo not drawn) [GT-05389, 3-(1-oxo-5-((4-(2-(pyrrolidin-1-yl)-6,7-dihydrothieno[3,2-d]pyrimidin-4-yl)piperazin-1-yl)methyl)isoindolin-2-yl)piperidine-2,6-dione] | B (80%< substrate protein remaining %≤ 100%) | A (0% ≤ substrate protein remaining % ≤ 80%) | A (0% ≤ substrate protein remaining % ≤ 80%) | B (80%< substrate protein remaining %≤ 100%) | B (80%< substrate protein remaining %≤ 100%) | B (80%< substrate protein remaining %≤ 100%) | – | – | – | – | – | – |
| 1.5 to 1.9 | O=C1CCC(N2Cc3cc(CN4CCC(c5ccon5)CC4)ccc3C2=O)C(=O)N1 (stereo not drawn) [GT-04715, 3-(5-((4-(isoxazol-3-yl)piperidin-1-yl)methyl)-1-oxoisoindolin-2-yl)piperidine-2,6-dione] | A (0% ≤ substrate protein remaining % ≤ 80%) | A (0% ≤ substrate protein remaining % ≤ 80%) | A (0% ≤ substrate protein remaining % ≤ 80%) | A (0% ≤ substrate protein remaining % ≤ 80%) | A (0% ≤ substrate protein remaining % ≤ 80%) | A (0% ≤ substrate protein remaining % ≤ 80%) | – | – | – | – | – | – |
| 1.5 to 1.9 | O=C1CCC(N2C(=O)c3ccc(CN4CCC(c5ncnc6sc7c(c56)CCCC7)CC4)cc3C2=O)C(=O)N1 (stereo not drawn) [GT-06649, 2-(2,6-dioxopiperidin-3-yl)-5-((4-(5,6,7,8-tetrahydrobenzo[4,5]thieno[2,3-d]pyrimidin-4-yl)piperidin-1-yl)methyl)isoindoline-1,3-dione] | – | – | – | – | – | – | A (0% ≤ substrate protein remaining % ≤ 80%) | B (80%< substrate protein remaining %≤ 100%) | A (0% ≤ substrate protein remaining % ≤ 80%) | A (0% ≤ substrate protein remaining % ≤ 80%) | A (0% ≤ substrate protein remaining % ≤ 80%) | A (0% ≤ substrate protein remaining % ≤ 80%) |
| 1 to 1.5 | Cc1ccc(N2CCN(Cc3ccc4c(c3)CN(C3CCC(=O)NC3=O)C4=O)CC2)c(C)c1 (stereo not drawn) [GT-04439, 3-(5-((4-(2,4-dimethylphenyl)piperazin-1-yl)methyl)-1-oxoisoindolin-2-yl)piperidine-2,6-dione] | A (0% ≤ substrate protein remaining % ≤ 80%) | A (0% ≤ substrate protein remaining % ≤ 80%) | A (0% ≤ substrate protein remaining % ≤ 80%) | A (0% ≤ substrate protein remaining % ≤ 80%) | A (0% ≤ substrate protein remaining % ≤ 80%) | A (0% ≤ substrate protein remaining % ≤ 80%) | – | – | – | – | – | – |
